Among the data in patent US9518018B2, “3-alkoxy, thioalkyl and amino-4-amino-6-(substituted)picolinates and their use as herbicides” (Dow AgroSciences LLC, priority 2011, dated 2016) are melting point and pest or weed control values, retold here.

Each structure is given as a SMILES string.

Test system in one series: not given
Experiment: not given
Details: not given
`COC(=O)c1nc(-c2ccc(Cl)cc2)c(Cl)c(N)c1OC` [Compound 44, methyl 4-amino-5-chloro-6-(4-chlorophenyl)-3-methoxypicolinate] came in with a melting point of 139 to 141 °C.
On to `COC(=O)c1nc(-c2ccc(Cl)c(N(C)C)c2F)c(F)c(N)c1OC` [Compound 43], for which the melting point is 113 to 115 °C.
For the molecule `COc1c(C(=O)O)nc(-c2ccc(I)cc2F)c(F)c1N` [Compound 62], the melting point lay within 143 to 145 °C.
As to `COC(=O)c1nc(Cl)c(Cl)c(N)c1OC` [Compound 2, methyl 4-amino-5,6-dichloro-3-methoxypicolinate], the melting point was in the range of 119 to 121 °C.
For `COC(=O)c1nc(-c2ccc(F)cc2)c(F)c(N)c1OC` [Compound 36], the melting point lay in the range of 141 to 143 °C.
The same measure, in the same setting: with `COc1c(C(=O)O)nc(-c2cc(F)c(Br)cc2F)c(F)c1N` [Compound 59] the figure was 147 to 148 °C; with `CSc1c(C(=O)O)nc(Cl)c(F)c1N` [Compound 73], 176 to 178 °C.

In the next series the test system is EPHHL: wild poinsettia (Euphorbia heterophylla). Kind of series: Post-Emergent Test I herbicidal activity. It counts as in vivo. The conditions noted are these: post-emergence, 336 h, Table 3, 70 g ai/ha, read-out: Visual Growth Reduction (%)-14 Days after Application EPHHL. In a few lines: (§1)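 Foliar spray, 187 L/ha, track sprayer; plants at 1st–2nd true leaf, 7–21 d old. Carrier: acetone/DMSO + aqueous acetone/IPA/crop oil/Triton X-155; high rate plus ½×–1/16× dilutions. Subirrigated; visual % injury vs untreated at 14 d.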
For the molecule `COc1c(C(=O)O)nc(-c2cc(F)c(Br)cc2F)c(F)c1N` [Compound 59], the pest or weed control at 70 g/ha is 100%.

The same series, now with this note: post-emergence, 336 h, Table 3, 140 g ai/ha, read-out: Visual Growth Reduction (%)-14 Days after Application EPHHL.
On to `COC(=O)c1nc(-c2ccc(Cl)cc2)c(Cl)c(N)c1OC` [Compound 44, methyl 4-amino-5-chloro-6-(4-chlorophenyl)-3-methoxypicolinate], for which the pest or weed control at 140 g/ha amounted to 0%.
Take `COC(=O)c1nc(-c2ccc(Cl)c(N(C)C)c2F)c(F)c(N)c1OC` [Compound 43]: the pest or weed control at 140 g/ha stood at 100%.
The same measure, in the same setting: with `COc1c(C(=O)O)nc(-c2ccc(I)cc2F)c(F)c1N` [Compound 62] the figure was 100%; with `COC(=O)c1nc(-c2ccc(F)cc2)c(F)c(N)c1OC` [Compound 36], 100%; with `CSc1c(C(=O)O)nc(Cl)c(F)c1N` [Compound 73], 50%.

Still in this series, the particulars now being: post-emergence, 336 h, Table 3, 280 g ai/ha, read-out: Visual Growth Reduction (%)-14 Days after Application EPHHL.
As to `COC(=O)c1nc(Cl)c(Cl)c(N)c1OC` [Compound 2, methyl 4-amino-5,6-dichloro-3-methoxypicolinate], the pest or weed control at 280 g/ha worked out at 95%.

Another series has as its system ABUTH: velvetleaf (Abutilon theophrasti). Nature of the series: Post-Emergent Test I herbicidal activity. The class given is in vivo. The conditions noted are these: Abutilon theophrasti, post-emergence, 336 h, Table 3, 70 g ai/ha, read-out: Visual Growth Reduction (%)-14 Days after Application ABUTH. The method, boiled down: as §1
In the case of `COc1c(C(=O)O)nc(-c2cc(F)c(Br)cc2F)c(F)c1N` [Compound 59], the pest or weed control at 70 g/ha is 80%.

Still in this series, the particulars now being: Abutilon theophrasti, post-emergence, 336 h, Table 3, 140 g ai/ha, read-out: Visual Growth Reduction (%)-14 Days after Application ABUTH.
On to `COC(=O)c1nc(-c2ccc(Cl)cc2)c(Cl)c(N)c1OC` [Compound 44, methyl 4-amino-5-chloro-6-(4-chlorophenyl)-3-methoxypicolinate], for which the pest or weed control at 140 g/ha came to 50%.
Consider `COC(=O)c1nc(-c2ccc(Cl)c(N(C)C)c2F)c(F)c(N)c1OC` [Compound 43], for which the pest or weed control at 140 g/ha was found to be 90%.
The same measure, in the same setting: in the case of `COc1c(C(=O)O)nc(-c2ccc(I)cc2F)c(F)c1N` [Compound 62] it was 15%; in that of `COC(=O)c1nc(-c2ccc(F)cc2)c(F)c(N)c1OC` [Compound 36], 100%.
Turning to `CSc1c(C(=O)O)nc(Cl)c(F)c1N` [Compound 73], the pest or weed control at 140 g/ha amounted to 10%.

The series is the same for the next values; noted with them: Abutilon theophrasti, post-emergence, 336 h, Table 3, 280 g ai/ha, read-out: Visual Growth Reduction (%)-14 Days after Application ABUTH.
Regarding `COC(=O)c1nc(Cl)c(Cl)c(N)c1OC` [Compound 2, methyl 4-amino-5,6-dichloro-3-methoxypicolinate], the pest or weed control at 280 g/ha was found to be 90%.

The test system of the next series is ZEAMX: corn (Zea mays). Nature of the series: Post-Emergent Test I herbicidal activity. The conditions noted are these: Zea mays, post-emergence, 336 h, Table 3, 70 g ai/ha, read-out: Visual Growth Reduction (%)-14 Days after Application ZEAMX. The class given is in vivo. In a few lines:
as §1
Consider `COc1c(C(=O)O)nc(-c2cc(F)c(Br)cc2F)c(F)c1N` [Compound 59], for which the pest or weed control at 70 g/ha is 70%.

The series is the same for the next values; noted with them: Zea mays, post-emergence, 336 h, Table 3, 140 g ai/ha, read-out: Visual Growth Reduction (%)-14 Days after Application ZEAMX.
In the case of `COC(=O)c1nc(-c2ccc(Cl)cc2)c(Cl)c(N)c1OC` [Compound 44, methyl 4-amino-5-chloro-6-(4-chlorophenyl)-3-methoxypicolinate], the pest or weed control at 140 g/ha is 15%.
Turning to `COC(=O)c1nc(-c2ccc(Cl)c(N(C)C)c2F)c(F)c(N)c1OC` [Compound 43], the pest or weed control at 140 g/ha was found to be 70%.
For the molecule `COc1c(C(=O)O)nc(-c2ccc(I)cc2F)c(F)c1N` [Compound 62], the pest or weed control at 140 g/ha is 75%.
As to `COC(=O)c1nc(-c2ccc(F)cc2)c(F)c(N)c1OC` [Compound 36], the pest or weed control at 140 g/ha is 60%.
In the case of `CSc1c(C(=O)O)nc(Cl)c(F)c1N` [Compound 73], the pest or weed control at 140 g/ha was found to be 0%.

The same series, now with this note: Zea mays, post-emergence, 336 h, Table 3, 280 g ai/ha, read-out: Visual Growth Reduction (%)-14 Days after Application ZEAMX.
Regarding `COC(=O)c1nc(Cl)c(Cl)c(N)c1OC` [Compound 2, methyl 4-amino-5,6-dichloro-3-methoxypicolinate], the pest or weed control at 280 g/ha is 0%.

The test system of another series is CYPES: yellow nutsedge (Cyperus esculentus). Kind of series: Post-Emergent Test I herbicidal activity. The class given is in vivo. The conditions noted are these: post-emergence, 336 h, Table 3, 70 g ai/ha, read-out: Visual Growth Reduction (%)-14 Days after Application CYPES. In a few lines:
as §1
Turning to `COc1c(C(=O)O)nc(-c2cc(F)c(Br)cc2F)c(F)c1N` [Compound 59], the pest or weed control at 70 g/ha came out at 50%.

The same series, now with this note: post-emergence, 336 h, Table 3, 140 g ai/ha, read-out: Visual Growth Reduction (%)-14 Days after Application CYPES.
Take `COC(=O)c1nc(-c2ccc(Cl)cc2)c(Cl)c(N)c1OC` [Compound 44, methyl 4-amino-5-chloro-6-(4-chlorophenyl)-3-methoxypicolinate]: the pest or weed control at 140 g/ha came out at 100%.
Same read-out and setting: with `COC(=O)c1nc(-c2ccc(Cl)c(N(C)C)c2F)c(F)c(N)c1OC` [Compound 43] the figure was 50%; with `COc1c(C(=O)O)nc(-c2ccc(I)cc2F)c(F)c1N` [Compound 62], 50%; with `COC(=O)c1nc(-c2ccc(F)cc2)c(F)c(N)c1OC` [Compound 36], 100%.
Same read-out and setting: with `CSc1c(C(=O)O)nc(Cl)c(F)c1N` [Compound 73] the figure was 0%.

The series is the same for the next values; noted with them: post-emergence, 336 h, Table 3, 280 g ai/ha, read-out: Visual Growth Reduction (%)-14 Days after Application CYPES.
For the molecule `COC(=O)c1nc(Cl)c(Cl)c(N)c1OC` [Compound 2, methyl 4-amino-5,6-dichloro-3-methoxypicolinate], the pest or weed control at 280 g/ha is 0%.

For another series, the system named is ECHCG: barnyardgrass (Echinochloa crus-galli). Kind of series: Post-Emergent Test I herbicidal activity. It counts as in vivo. The conditions noted are these: post-emergence, 336 h, Table 3, 70 g ai/ha, read-out: Visual Growth Reduction (%)-14 Days after Application ECHCG. In a few lines:
(§2)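 Post-emergence foliar application to young greenhouse plants at 187 L/ha, five rates down to 1/16× of the top rate. Percent injury is assessed visually two weeks later against untreated plants.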
For the molecule `COc1c(C(=O)O)nc(-c2cc(F)c(Br)cc2F)c(F)c1N` [Compound 59], the pest or weed control at 70 g/ha was found to be 100%.

Staying with this series, now noted: post-emergence, 336 h, Table 3, 140 g ai/ha, read-out: Visual Growth Reduction (%)-14 Days after Application ECHCG.
On to `COC(=O)c1nc(-c2ccc(Cl)cc2)c(Cl)c(N)c1OC` [Compound 44, methyl 4-amino-5-chloro-6-(4-chlorophenyl)-3-methoxypicolinate], for which the pest or weed control at 140 g/ha is 0%.
For `COC(=O)c1nc(-c2ccc(Cl)c(N(C)C)c2F)c(F)c(N)c1OC` [Compound 43], the pest or weed control at 140 g/ha turned out to be 80%.
Same read-out and setting: in the case of `COc1c(C(=O)O)nc(-c2ccc(I)cc2F)c(F)c1N` [Compound 62] it was 100%; in that of `COC(=O)c1nc(-c2ccc(F)cc2)c(F)c(N)c1OC` [Compound 36], 0%.
`CSc1c(C(=O)O)nc(Cl)c(F)c1N` [Compound 73]: the pest or weed control at 140 g/ha was 0%.

Still in this series, the particulars now being: post-emergence, 336 h, Table 3, 280 g ai/ha, read-out: Visual Growth Reduction (%)-14 Days after Application ECHCG.
As to `COC(=O)c1nc(Cl)c(Cl)c(N)c1OC` [Compound 2, methyl 4-amino-5,6-dichloro-3-methoxypicolinate], the pest or weed control at 280 g/ha was found to be 0%.

A further series has as its system ORYSA: rice (Oryza sativa). Kind of series: Post-Emergent Test I herbicidal activity. The class given is in vivo. The conditions noted are these: post-emergence, 336 h, Table 3, 70 g ai/ha, read-out: Visual Growth Reduction (%)-14 Days after Application ORYSA. In a few lines:
as §2
Consider `COc1c(C(=O)O)nc(-c2cc(F)c(Br)cc2F)c(F)c1N` [Compound 59], for which the pest or weed control at 70 g/ha was determined as 5%.

The series is the same for the next values; noted with them: post-emergence, 336 h, Table 3, 140 g ai/ha, read-out: Visual Growth Reduction (%)-14 Days after Application ORYSA.
Turning to `COC(=O)c1nc(-c2ccc(Cl)cc2)c(Cl)c(N)c1OC` [Compound 44, methyl 4-amino-5-chloro-6-(4-chlorophenyl)-3-methoxypicolinate], the pest or weed control at 140 g/ha was 0%.
Same read-out and setting: with `COC(=O)c1nc(-c2ccc(Cl)c(N(C)C)c2F)c(F)c(N)c1OC` [Compound 43] the figure was 0%.
Still for that read-out and setting: in the case of `COc1c(C(=O)O)nc(-c2ccc(I)cc2F)c(F)c1N` [Compound 62] it was 8%; in that of `COC(=O)c1nc(-c2ccc(F)cc2)c(F)c(N)c1OC` [Compound 36], 0%; in that of `CSc1c(C(=O)O)nc(Cl)c(F)c1N` [Compound 73], 0%.

Still in this series, the particulars now being: post-emergence, 336 h, Table 3, 280 g ai/ha, read-out: Visual Growth Reduction (%)-14 Days after Application ORYSA.
Regarding `COC(=O)c1nc(Cl)c(Cl)c(N)c1OC` [Compound 2, methyl 4-amino-5,6-dichloro-3-methoxypicolinate], the pest or weed control at 280 g/ha was 0%.

The next series deals with CHEAL: lambsquarters (Chenopodium album). Nature of the series: Post-Emergent Test I herbicidal activity. The class given is in vivo. The conditions noted are these: Chenopodium album, post-emergence, 336 h, Table 3, 70 g ai/ha, read-out: Visual Growth Reduction (%)-14 Days after Application CHEAL. In a few lines:
as §1
For the molecule `COc1c(C(=O)O)nc(-c2cc(F)c(Br)cc2F)c(F)c1N` [Compound 59], the pest or weed control at 70 g/ha came out at 100%.

The same series, now with this note: Chenopodium album, post-emergence, 336 h, Table 3, 140 g ai/ha, read-out: Visual Growth Reduction (%)-14 Days after Application CHEAL.
Regarding `COC(=O)c1nc(-c2ccc(Cl)cc2)c(Cl)c(N)c1OC` [Compound 44, methyl 4-amino-5-chloro-6-(4-chlorophenyl)-3-methoxypicolinate], the pest or weed control at 140 g/ha is 100%.
For `COC(=O)c1nc(-c2ccc(Cl)c(N(C)C)c2F)c(F)c(N)c1OC` [Compound 43], the pest or weed control at 140 g/ha stood at 100%.
Regarding `COc1c(C(=O)O)nc(-c2ccc(I)cc2F)c(F)c1N` [Compound 62], the pest or weed control at 140 g/ha was determined as 100%.
Still for that read-out and setting: in the case of `COC(=O)c1nc(-c2ccc(F)cc2)c(F)c(N)c1OC` [Compound 36] it was 100%; in that of `CSc1c(C(=O)O)nc(Cl)c(F)c1N` [Compound 73], 10%.

Still in this series, the particulars now being: Chenopodium album, post-emergence, 336 h, Table 3, 280 g ai/ha, read-out: Visual Growth Reduction (%)-14 Days after Application CHEAL.
As to `COC(=O)c1nc(Cl)c(Cl)c(N)c1OC` [Compound 2, methyl 4-amino-5,6-dichloro-3-methoxypicolinate], the pest or weed control at 280 g/ha stood at 90%.
